Tested on: OPN production by human liver cancer-derived cell line HepG2
Assay: OPN production by HepG2 cells (Human Osteopontin Immunoassay, per mg protein)
Type: cell-based
Conditions: 2-day culture; for suppression of OPN production vs control group: significance level less than 1%
Method: The confirmation test was performed in the following manner. The compound 3 wad added to a culture liquid containing cells of a human non-small cell lung cancer-derived cell line A549 or a human liver cancer-derived cell line HepG2, and the amount of OPN in culture supernatant after 2-day culture was measured using Human Osteopontin Immunoassay kit (R&D systems) and compared with the OPN amount of a compound 3-free group (control group).
The compound 3 has also cell growth inhibitory effect. Therefore, in order to properly evaluate the OPN production-suppressing effect of the compound 3, 1×CCLR used in luciferase assay was added to cells remaining in each well after removal of culture supernatant to prepare a cell lysate, and the amount of protein in the cell lysate was measured using BCA Protein Assay Kit (Thermo Scientific). The influence of addition of the compound 3 on the amount of OPN production was evaluated by comparison of the amount of OPN per milligram of protein.
First, A549 cells or HepG2 cells were suspended in DMEM medium containing 10% FCS and 1% P/S at 4×10^4 cells/mL to obtain a cell suspension, and 500 μL of the cell suspension was dispensed into each well of a 24-well plate. In order to perform the test in triplicate, 3 wells were prepared for a control group and 3 wells were prepared for each test compound-treated group at each concentration. The 24-well plate was incubated in a CO2 incubator (at 37° C. and 5% CO2) for 24±4 hours.
The 3.75 mmol/L compound 3 solution or the 7.5 mmol/L compound 3 solution was added in an amount of 2 μL to each well in which HepG2 cells were cultured. Only DMSO was added to each control well in an amount of 2 μL.
The 24-well plate was rocked back and forth and side to side to mix the solution in each well, and was then incubated in a CO2 incubator (at 37° C. and 5% CO2) for 48±4 hours. Then, the total amount of culture supernatant was transferred into a 1.5 mL tube, and 500 μL of D-PBS(−) was added to each well in which cells are remained. […]

## CCCCCCCCCCCC(=O)[C@H]1C(=O)O[C@@H](C)C[C@@H]1C [Chemical formula 3]
15 μmol/L
  suppression of OPN production vs control group: significantly suppressed
30 μmol/L
  amount of OPN produced relative to control group: reduced to half or less
  suppression of OPN production vs control group: significantly suppressed
